Test results published in paper PMC11285948, “The effects of CYP2B6 inactivators on the metabolism of ciprofol” (PLOS ONE, 2024).
Values joined by “and” are separate entries in the source; they are usually repeats but may differ in a detail not shown here. Equal values may be shown once.

Columns and labels:
[1] = Stability of ciprofol QC samples in liver microsome incubation system; type: physicochemical; details: liver microsomes; for ciprofol found after storage, Autosampler / ciprofol found after storage, Room Temperature: n = 5; for Stability: calculated concentration: single replicates
Procedure: The incubation system was removed from the water bath, and the reaction was terminated immediately by adding 800 μL of reaction termination solution (acetonitrile solution containing 5 μg·mL^-1 D6-ciprofol at 4°C). The mixture was vortexed for 2 min and centrifuged for 15 min, after which the supernatant was transferred to an autosampler vial for HPLC-MS/MS detection.
(§1) To investigate the stability of ciprofol under a variety of conditions, three groups of liver microsome QC sample solutions were prepared, and one group was immediately processed and analysed as described in Section 2.4.2. Another group was stored at room temperature for 8 hours before treatment and assessment. The other group was treated and placed in the autosampler (4°C) for 24 h and subsequently analysed. In addition, simulated plasma QC samples were prepared in five groups: one group was processed and measured immediately as described in Section 2.4.3, and another group was placed in the autosampler for 24 h after treatment. The other three groups were placed at room temperature for 8 h, stored at -40°C for 30 d, frozen and thawed three times, respectively, and then processed and detected as described in Section 2.4.3. All the above samples were tested in parallel in five batches.

[2] = test system: typical substrates of CYP1A2, CYP2B6, and CYP2C19; details: IVIVE and PBPK simulations; ref Hou et al. 9; cited from earlier work
[3] = Stability of ciprofol QC samples in rat plasma; type: physicochemical; design: calculated concentration, mean: unit: ng/mL; details: for ciprofol found after storage, Autosampler / ciprofol found after storage, Room Temperature / ciprofol found after storage, Freeze–Thaw / ciprofol found after storage, Long-Term Storage / Stability: mean calculated concentration / Stability: calculated concentration: rat plasma; for ciprofol found after storage, Autosampler / ciprofol found after storage, Room Temperature / ciprofol found after storage, Freeze–Thaw / ciprofol found after storage, Long-Term Storage: n = 5; for Stability: calculated concentration: single replicates
Procedure: 5 μL of IS solution (2.5 μg·mL^-1 D6-ciprofol) was added to 100 μL of plasma and mixed. Then, 300 μL of acetonitrile was added. The mixture was vortexed for 2 min and centrifuged for 10 min, and the supernatant was transferred to an autosampler vial for HPLC-MS/MS detection.
as §1

[4] = clinical trials; cited from earlier work
[5] = Autosampler for 24 h, QC level H
[6] = Autosampler for 24 h, QC level L
[7] = Autosampler for 24 h, QC level M
[8] = Room - Temperature for 8 h, QC level H
[9] = Room - Temperature for 8 h, QC level L
[10] = Room - Temperature for 8 h, QC level M
[11] = Feeeze - Thaw for three times, QC level H
[12] = Feeeze - Thaw for three times, QC level L
[13] = Feeeze - Thaw for three times, QC level M

SMILES: CC(C)c1cccc([C@H](C)C2CC2)c1O [ciprofol]
- ciprofol found after storage, Autosampler ([1]; QC 2.5 μg·mL^-1, autosampler (4°C) for 24 h after treatment): 2.54 ± 0.11 µg/mL
- ciprofol found after storage, Room Temperature ([1]; QC 2.5 μg·mL^-1, room temperature for 8 h): 2.53 ± 0.19 µg/mL
- ciprofol found after storage, Autosampler ([1]; QC 10 μg·mL^-1, autosampler (4°C) for 24 h after treatment): 9.82 ± 0.44 µg/mL
- ciprofol found after storage, Room Temperature ([1]; QC 10 μg·mL^-1, room temperature for 8 h): 10.14 ± 0.62 µg/mL
- ciprofol found after storage, Autosampler ([1]; QC 75 μg·mL^-1, autosampler (4°C) for 24 h after treatment): 72.07 ± 4.83 µg/mL
- ciprofol found after storage, Room Temperature ([1]; QC 75 μg·mL^-1, room temperature for 8 h): 70.43 ± 3.12 µg/mL
- Stability: mean calculated concentration [1, 5]: 72.07 µg/mL
- Stability: calculated concentration [1, 5]: 64.85 µg/mL and 72.55 µg/mL and 71.79 µg/mL and 72.70 µg/mL and 78.45 µg/mL
- Stability: mean calculated concentration [1, 6]: 2.54 µg/mL
- Stability: calculated concentration [1, 6]: 2.73 µg/mL and 2.56 µg/mL and 2.49 µg/mL and 2.50 µg/mL and 2.43 µg/mL
- Stability: mean calculated concentration [1, 7]: 9.82 µg/mL
- Stability: calculated concentration [1, 7]: 9.08 µg/mL and 9.88 µg/mL and 10.27 µg/mL and 9.89 µg/mL and 9.96 µg/mL
- Stability: mean calculated concentration [1, 8]: 70.43 µg/mL
- Stability: calculated concentration [1, 8]: 71.38 µg/mL and 72.99 µg/mL and 69.04 µg/mL and 65.67 µg/mL and 73.05 µg/mL
- Stability: mean calculated concentration [1, 9]: 2.53 µg/mL
- Stability: calculated concentration [1, 9]: 2.63 µg/mL and 2.49 µg/mL and 2.51 µg/mL and 2.26 µg/mL and 2.77 µg/mL
- Stability: mean calculated concentration [1, 10]: 10.15 µg/mL
- Stability: calculated concentration [1, 10]: 9.80 µg/mL and 9.76 µg/mL and 10.83 µg/mL and 10.81 µg/mL and 9.53 µg/mL
- predicted drug-drug interactions with typical substrates of CYP1A2, CYP2B6, and CYP2C19 [2]: did not cause drug‒drug interactions
- calculated concentration, mean ([3]; QC sample level H, mean of H1-H5): 1597.51
- ciprofol found after storage, Autosampler ([3]; QC 30 ng·mL^-1, autosampler for 24 h after treatment): 32.80 ± 1.93 ng/mL
- ciprofol found after storage, Room Temperature ([3]; QC 30 ng·mL^-1, room temperature for 8 h): 30.50 ± 2.27 ng/mL
- ciprofol found after storage, Freeze–Thaw ([3]; QC 30 ng·mL^-1, three freeze–thaw cycles): 33.49 ± 2.03 ng/mL
- ciprofol found after storage, Long-Term Storage ([3]; QC 30 ng·mL^-1, −40°C for 30 days): 32.70 ± 2.85 ng/mL
- ciprofol found after storage, Autosampler ([3]; QC 250 ng·mL^-1, autosampler for 24 h after treatment): 250.78 ± 12.31 ng/mL
- ciprofol found after storage, Room Temperature ([3]; QC 250 ng·mL^-1, room temperature for 8 h): 227.31 ± 5.60 ng/mL
- ciprofol found after storage, Freeze–Thaw ([3]; QC 250 ng·mL^-1, three freeze–thaw cycles): 245.21 ± 3.43 ng/mL
- ciprofol found after storage, Long-Term Storage ([3]; QC 250 ng·mL^-1, −40°C for 30 days): 242.73 ± 9.08 ng/mL
- ciprofol found after storage, Autosampler ([3]; QC 1600 ng·mL^-1, autosampler for 24 h after treatment): 1576.27 ± 41.67 ng/mL
- ciprofol found after storage, Room Temperature ([3]; QC 1600 ng·mL^-1, room temperature for 8 h): 1464.24 ± 98.79 ng/mL
- ciprofol found after storage, Freeze–Thaw ([3]; QC 1600 ng·mL^-1, three freeze–thaw cycles): 1604.92 ± 96.88 ng/mL
- ciprofol found after storage, Long-Term Storage ([3]; QC 1600 ng·mL^-1, −40°C for 30 days): 1597.51 ± 83.93 ng/mL
- Stability: mean calculated concentration ([3]; -40℃ for 30 d, QC level L): 31.38 ng/mL
- Stability: calculated concentration ([3]; -40℃ for 30 d, QC level L): 34.12 ng/mL and 32.66 ng/mL and 29.27 ng/mL and 33.13 ng/mL and 27.74 ng/mL
- Stability: mean calculated concentration ([3]; -40℃ for 30 d, QC level M): 242.73 ng/mL
- Stability: calculated concentration ([3]; -40℃ for 30 d, QC level M): 234.27 ng/mL and 256.93 ng/mL and 236.05 ng/mL and 240.78 ng/mL
- Stability: mean calculated concentration [3, 5]: 1576.27 ng/mL
- Stability: calculated concentration [3, 5]: 1522.23 ng/mL and 1628.44 ng/mL and 1549.96 ng/mL and 1580.01 ng/mL and 1600.71 ng/mL
- Stability: mean calculated concentration [3, 6]: 31.48 ng/mL
- Stability: calculated concentration [3, 6]: 32.65 ng/mL and 31.94 ng/mL and 29.92 ng/mL and 33.65 ng/mL and 29.23 ng/mL
- Stability: mean calculated concentration [3, 7]: 250.78 ng/mL
- Stability: calculated concentration [3, 7]: 249.99 ng/mL and 245.49 ng/mL and 259.61 ng/mL and 233.66 ng/mL and 265.15 ng/mL
- Stability: mean calculated concentration [3, 11]: 1604.92 ng/mL
- Stability: calculated concentration [3, 11]: 1500.04 ng/mL and 1659.28 ng/mL and 1498.65 ng/mL and 1682.66 ng/mL and 1683.96 ng/mL
- Stability: mean calculated concentration [3, 12]: 32.14 ng/mL
- Stability: calculated concentration [3, 12]: 33.17 ng/mL and 29.49 ng/mL and 30.69 ng/mL and 33.26 ng/mL and 34.09 ng/mL
- Stability: mean calculated concentration [3, 13]: 245.21 ng/mL
- Stability: calculated concentration [3, 13]: 248.65 ng/mL and 241.72 ng/mL and 249.13 ng/mL and 243.02 ng/mL and 243.50 ng/mL
- Stability: mean calculated concentration [3, 8]: 1464.24 ng/mL
- Stability: calculated concentration [3, 8]: 1500.17 ng/mL and 1462.05 ng/mL and 1317.85 ng/mL and 1591.16 ng/mL and 1449.95 ng/mL
- Stability: mean calculated concentration [3, 9]: 29.27 ng/mL
- Stability: calculated concentration [3, 9]: 29.52 ng/mL and 32.22 ng/mL and 27.05 ng/mL and 30.35 ng/mL and 27.24 ng/mL
- Stability: mean calculated concentration [3, 10]: 227.31 ng/mL
- Stability: calculated concentration [3, 10]: 220.38 ng/mL and 226.72 ng/mL and 228.84 ng/mL and 235.64 ng/mL and 224.99 ng/mL
- incidence of pain on injection relative to that caused by propofol [4]: 1/10
